Target: T1, recombinant full-length USP7 (Homo sapiens, UniProt Q93009)
T1 construct: A 25 μl reaction volume containing recombinant full-length USP7 (62 pM)
Assay: USP7-mediated ubiquitin-rhodamine cleavage assay
Assay type: biochemical
Settings: recombinant full-length USP7 62 pM; ubiquitin-rhodamine 100 nM; 30-minute pre-incubation, 1 hour reaction at room temperature; read-out: Potency (USP7 IC50)
Summary of the method: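 Rhodamine fluorescence read-out after acetic acid stop; IC50 by 4-parameter nonlinear regression. Enzyme at 62 pM, substrate ubiquitin-rhodamine 100 nM final, 1 h at room temperature in the dark, after 30 min compound preincubation. Buffer: HEPES pH 7.3, NaCl, TCEP, BSA; 1% DMSO.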

T1 sequence (Q93009 whole entry): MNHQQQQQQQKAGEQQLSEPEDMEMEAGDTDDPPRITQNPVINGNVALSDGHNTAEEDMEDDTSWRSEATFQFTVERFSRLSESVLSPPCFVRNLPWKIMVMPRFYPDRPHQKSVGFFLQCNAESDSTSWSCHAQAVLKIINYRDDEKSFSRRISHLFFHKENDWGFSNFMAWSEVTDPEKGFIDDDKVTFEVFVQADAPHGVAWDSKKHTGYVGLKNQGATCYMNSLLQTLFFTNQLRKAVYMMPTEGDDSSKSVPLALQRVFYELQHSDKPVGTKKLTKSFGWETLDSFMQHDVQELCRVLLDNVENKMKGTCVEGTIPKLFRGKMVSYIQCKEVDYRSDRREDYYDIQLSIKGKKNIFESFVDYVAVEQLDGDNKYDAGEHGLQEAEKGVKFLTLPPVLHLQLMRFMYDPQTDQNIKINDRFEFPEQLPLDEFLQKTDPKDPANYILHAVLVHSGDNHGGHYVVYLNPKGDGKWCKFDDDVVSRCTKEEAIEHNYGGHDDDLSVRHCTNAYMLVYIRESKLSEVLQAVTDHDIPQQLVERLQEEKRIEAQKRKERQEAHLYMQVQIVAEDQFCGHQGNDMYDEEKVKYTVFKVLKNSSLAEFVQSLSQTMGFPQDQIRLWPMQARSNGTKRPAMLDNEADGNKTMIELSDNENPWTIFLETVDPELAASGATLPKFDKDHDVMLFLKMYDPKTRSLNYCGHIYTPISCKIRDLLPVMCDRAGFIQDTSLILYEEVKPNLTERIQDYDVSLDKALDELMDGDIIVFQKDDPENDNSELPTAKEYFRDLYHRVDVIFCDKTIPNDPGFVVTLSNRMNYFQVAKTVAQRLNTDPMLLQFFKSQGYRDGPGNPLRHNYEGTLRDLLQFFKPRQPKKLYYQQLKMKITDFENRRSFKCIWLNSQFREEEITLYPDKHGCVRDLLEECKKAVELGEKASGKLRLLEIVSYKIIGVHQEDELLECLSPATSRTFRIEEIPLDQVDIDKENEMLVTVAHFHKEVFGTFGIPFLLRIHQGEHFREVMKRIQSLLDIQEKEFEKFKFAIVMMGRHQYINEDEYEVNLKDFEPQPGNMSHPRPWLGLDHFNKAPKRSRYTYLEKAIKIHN

Row | Structure (SMILES) | IC50
1 | Cc1cc(Cl)cc(-c2ccnc3cc(Cn4c(=O)ccn(CC(F)(F)F)c4=O)sc23)c1O[C@@H]1CCN(CC(F)(F)F)C[C@@H]1C [Example 638, 3-[[7-[5-chloro-3-methyl-2-[[(3S,4R)-3-methyl-1-(2,2,2-trifluoroethyl)-4-piperidyl]oxy]phenyl]thieno[3,2-b]pyridin-2-yl]methyl]-1-(2,2,2-trifluoroethyl)pyrimidine-2,4-dione] | < 1000 nM
2 | Cc1cc(Cl)cc(-c2ccnc3cc(Cn4c(=O)ccn(CC(F)(F)F)c4=O)sc23)c1OC1(C)CC(N)C1 (centres unmarked) [Example 640, 3-[[7-[2-(3-amino-1-methyl-cyclobutoxy)-5-chloro-3-methyl-phenyl]thieno[3,2-b]pyridin-2-yl]methyl]-1-(2,2,2-trifluoroethyl)pyrimidine-2,4-dione] | < 1000 nM
3 | Cc1cc(Cl)cc(-c2ccnc3cc(Cn4c(=O)ccn(CC(F)(F)F)c4=O)sc23)c1O[C@@H]1CN(C2CC(C(F)(F)F)C2)C[C@@H]1C (stereo partly drawn) [Example 644, 3-[[7-[5-chloro-3-methyl-2-[(3S,4S)-4-methyl-1-[3-(trifluoromethyl)cyclobutyl]pyrrolidin-3-yl]oxy-phenyl]thieno[3,2-b]pyridin-2-yl]methyl]-1-(2,2,2-trifluoroethyl)pyrimidine-2,4-dione] | < 1000 nM
4 | COCCN1C[C@H](C)[C@H](Oc2c(C)cc(Cl)cc2-c2ccnc3cc(Cn4c(=O)ccn(CC(F)(F)F)c4=O)sc23)C1 [Example 645, 3-[[7-[5-chloro-2-[(3S,4S)-1-(2-methoxyethyl)-4-methyl-pyrrolidin-3-yl]oxy-3-methyl-phenyl]thieno[3,2-b]pyridin-2-yl]methyl]-1-(2,2,2-trifluoroethyl)pyrimidine-2,4-dione] | < 1000 nM
5 | Cc1cc(Cl)cc(-c2ccnc3cc(Cn4c(=O)ccn(CC(F)(F)F)c4=O)sc23)c1O[C@@H]1CCN(Cc2cnoc2)C[C@@H]1C [Example 648, 3-[[7-[5-chloro-2-[[(3S,4R)-1-(isoxazol-4-ylmethyl)-3-methyl-4-piperidyl]oxy]-3-methyl-phenyl]thieno[3,2-b]pyridin-2-yl]methyl]-1-(2,2,2-trifluoroethyl)pyrimidine-2,4-dione] | < 1000 nM
6 | Cc1cc(Cl)cc(-c2ccnc3cc(CN4C(=O)CN(CC(F)(F)F)C4=O)sc23)c1OC1CCNCC1 [Example 649, 3-[[7-[5-chloro-3-methyl-2-(4-piperidyloxy)phenyl]thieno[3,2-b]pyridin-2-yl]methyl]-1-(2,2,2-trifluoroethyl)imidazolidine-2,4-dione; 2,2,2-trifluoroacetic acid] | < 1000 nM
7 | COCCN1CC[C@@H](Oc2c(C)cc(Cl)cc2-c2ccnc3cc(Cn4c(=O)ccn(CC(F)(F)F)c4=O)sc23)[C@H](C)C1 [Example 654, 3-[[7-[5-chloro-2-[[(3R,4R)-1-(2-methoxyethyl)-3-methyl-4-piperidyl]oxy]-3-methyl-phenyl]thieno[3,2-b]pyridin-2-yl]methyl]-1-(2,2,2-trifluoroethyl)pyrimidine-2,4-dione] | < 1000 nM
8 | Cc1cc(Cl)cc(-c2ccnc3cc(Cn4c(=O)ccn(CC(F)(F)F)c4=O)sc23)c1OC1CC(N2CCOC[C@H]2C)C1 (stereo partly drawn) [Example 657, 3-[[7-[5-chloro-3-methyl-2-[3-[(3R)-3-methylmorpholin-4-yl]cyclobutoxy]phenyl]thieno[3,2-b]pyridin-2-yl]methyl]-1-(2,2,2-trifluoroethyl)pyrimidine-2,4-dione; 2,2,2-trifluoroacetic acid] | < 1000 nM
9 | Cc1cc(Cl)cc(-c2ccnc3cc(Cn4c(=O)ccn(CC(F)(F)F)c4=O)sc23)c1OC1CC(N2CCOC[C@@H]2C)C1 (stereo partly drawn) [Example 658, 3-[[7-[5-chloro-3-methyl-2-[3-[(3S)-3-methylmorpholin-4-yl]cyclobutoxy]phenyl]thieno[3,2-b]pyridin-2-yl]methyl]-1-(2,2,2-trifluoroethyl)pyrimidine-2,4-dione; 2,2,2-trifluoroacetic acid] | < 1000 nM

Second part, the compound after the results:

Row | IC50 | Structure (SMILES)
10 | < 1000 nM | CC[C@@H]1C[C@H](Oc2c(C)cc(Cl)cc2-c2ccnc3cc(Cn4c(=O)ccn(CC(F)(F)F)c4=O)sc23)CCN1 [Example 636, 3-[[7-[5-chloro-2-[[(2R,4R)-2-ethyl-4-piperidyl]oxy]-3-methyl-phenyl]thieno[3,2-b]pyridin-2-yl]methyl]-1-(2,2,2-trifluoroethyl)pyrimidine-2,4-dione]
11 | < 1000 nM | Cc1cc(Cl)cc(-c2ccnc3cc(Cn4c(=O)ccn(CC(F)(F)F)c4=O)sc23)c1O[C@@H]1C[C@@H]2C[C@H]1CN2 [Example 637, 3-[[7-[2-[[(1S,4S,5R)-2-azabicyclo[2.2.1]heptan-5-yl]oxy]-5-chloro-3-methyl-phenyl]thieno[3,2-b]pyridin-2-yl]methyl]-1-(2,2,2-trifluoroethyl)pyrimidine-2,4-dione; 2,2,2-trifluoroacetic acid]
12 | < 1000 nM | Cc1cc(Cl)cc(-c2ccnc3cc(Cn4c(=O)ccn(CC(F)(F)F)c4=O)sc23)c1OC1(C)CCCNC1 (centres unmarked) [Example 639, 3-[[7-[5-chloro-3-methyl-2-[(3-methyl-3-piperidyl)oxy]phenyl]thieno[3,2-b]pyridin-2-yl]methyl]-1-(2,2,2-trifluoroethyl)pyrimidine-2,4-dione]
13 | < 1000 nM | Cc1cc(Cl)cc(-c2ccnc3cc(Cn4c(=O)ccn(CC(F)(F)F)c4=O)sc23)c1OCC1(F)CNC1 [Example 641, 3-[[7-[5-chloro-2-[(3-fluoroazetidin-3-yl)methoxy]-3-methyl-phenyl]thieno[3,2-b]pyridin-2-yl]methyl]-1-(2,2,2-trifluoroethyl)pyrimidine-2,4-dione]
14 | < 1000 nM | Cc1cc(Cl)cc(-c2ccnc3cc(Cn4c(=O)ccn(CC(F)(F)F)c4=O)sc23)c1O[C@@H]1CCN(CC(F)F)C[C@@H]1C [Example 642, 3-[[7-[5-chloro-2-[[(3S,4R)-1-(2,2-difluoroethyl)-3-methyl-4-piperidyl]oxy]-3-methyl-phenyl]thieno[3,2-b]pyridin-2-yl]methyl]-1-(2,2,2-trifluoroethyl)pyrimidine-2,4-dione]
15 | < 1000 nM | COC(=O)N1CC[C@@H](Oc2c(C)cc(Cl)cc2-c2ccnc3cc(Cn4c(=O)ccn(CC(F)(F)F)c4=O)sc23)[C@@H](C)C1 [Example 643, methyl (3S,4R)-4-[4-chloro-2-[2-[[2,6-dioxo-3-(2,2,2-trifluoroethyl)pyrimidin-1-yl]methyl]thieno[3,2-b]pyridin-7-yl]-6-methyl-phenoxy]-3-methyl-piperidine-1-carboxylate]
16 | < 1000 nM | Cc1cc(Cl)cc(-c2ccnc3cc(Cn4c(=O)ccn(CC(F)(F)F)c4=O)sc23)c1OCC1COCCN1 (centres unmarked) [Example 646, 3-[[7-[5-chloro-3-methyl-2-(morpholin-3-ylmethoxy)phenyl]thieno[3,2-b]pyridin-2-yl]methyl]-1-(2,2,2-trifluoroethyl)pyrimidine-2,4-dione; 2,2,2-trifluoroacetic acid]
17 | < 1000 nM | COC[C@@H]1C[C@H](Oc2c(C)cc(Cl)cc2-c2ccnc3cc(Cn4c(=O)ccn(CC(F)(F)F)c4=O)sc23)CN1 [Example 647, 3-[[7-[5-chloro-2-[(3S,5S)-5-(methoxymethyl)pyrrolidin-3-yl]oxy-3-methyl-phenyl]thieno[3,2-b]pyridin-2-yl]methyl]-1-(2,2,2-trifluoroethyl)pyrimidine-2,4-dione]
18 | < 1000 nM | COC[C@H]1C[C@H](Oc2c(C)cc(Cl)cc2-c2ccnc3cc(Cn4c(=O)ccn(CC(F)(F)F)c4=O)sc23)CN1 [Example 650, 3-[[7-[5-chloro-2-[(3S,5R)-5-(methoxymethyl)pyrrolidin-3-yl]oxy-3-methyl-phenyl]thieno[3,2-b]pyridin-2-yl]methyl]-1-(2,2,2-trifluoroethyl)pyrimidine-2,4-dione]
19 | < 1000 nM | Cc1cc(Cl)cc(-c2ccnc3cc(Cn4c(=O)ccn(CC(F)(F)F)c4=O)sc23)c1OCC1CNCCO1 (centres unmarked) [Example 651, 3-[[7-[5-chloro-3-methyl-2-(morpholin-2-ylmethoxy)phenyl]thieno[3,2-b]pyridin-2-yl]methyl]-1-(2,2,2-trifluoroethyl)pyrimidine-2,4-dione; 2,2,2-trifluoroacetic acid]
20 | < 1000 nM | COC(=O)[C@@H]1C[C@H](Oc2c(C)cc(Cl)cc2-c2ccnc3cc(Cn4c(=O)ccn(CC(F)(F)F)c4=O)sc23)CN1 [Example 652, methyl (2S,4S)-4-[4-chloro-2-[2-[[2,6-dioxo-3-(2,2,2-trifluoroethyl)pyrimidin-1-yl]methyl]thieno[3,2-b]pyridin-7-yl]-6-methyl-phenoxy]pyrrolidine-2-carboxylate]
21 | < 1000 nM | COC(=O)[C@H]1C[C@H](Oc2c(C)cc(Cl)cc2-c2ccnc3cc(Cn4c(=O)ccn(CC(F)(F)F)c4=O)sc23)CN1 [Example 653, methyl (2R,4S)-4-[4-chloro-2-[2-[[2,6-dioxo-3-(2,2,2-trifluoroethyl)pyrimidin-1-yl]methyl]thieno[3,2-b]pyridin-7-yl]-6-methyl-phenoxy]pyrrolidine-2-carboxylate]
22 | < 1000 nM | CO[C@H]1CNC[C@H]1Oc1c(C)cc(Cl)cc1-c1ccnc2cc(Cn3c(=O)ccn(CC(F)(F)F)c3=O)sc12 [Example 655, 3-[[7-[5-chloro-2-[(3R,4S)-4-methoxypyrrolidin-3-yl]oxy-3-methyl-phenyl]thieno[3,2-b]pyridin-2-yl]methyl]-1-(2,2,2-trifluoroethyl)pyrimidine-2,4-dione]
23 | < 1000 nM | Cc1cc(Cl)cc(-c2ccnc3cc(Cn4c(=O)ccn(CC(F)(F)F)c4=O)sc23)c1O[C@H]1CCCNCC1 [Example 656, 3-[[7-[2-[(4S)-azepan-4-yl]oxy-5-chloro-3-methyl-phenyl]thieno[3,2-b]pyridin-2-yl]methyl]-1-(2,2,2-trifluoroethyl)pyrimidine-2,4-dione; 2,2,2-trifluoroacetic acid]
